Measured values: ChEMBL document CHEMBL1821680, “Current status and research strategies in tuberculosis drug development” (2011)
Converted amounts (≈) assume the structure as drawn.

system: Mycobacterium tuberculosis; experiment: Antituberculosis activity against Mycobacterium tuberculosis H37Rv; format: functional

Q: For `O=S1(=O)C=C(Sc2nc3ccccc3s2)c2ccccc21`, which IC90 is on record?
A: < 0.1 µg/mL

Q: How did the IC90 turn out when `O=c1c2ccccc2nc(/C=C/c2ccc([N+](=O)[O-])o2)n1CCCO` was run?
A: < 0.1 µg/mL

Q: With `Cc1cccc(Nc2nc(-c3ccccn3)cs2)n1` as the molecule, how does the IC90 read?
A: < 0.1 µg/mL

Q: `O=C(Nc1nc(-c2ccccc2)c(-c2ccccc2)o1)c1ccc(F)cc1` was tested. Which IC90 did it give?
A: < 0.1 µg/mL

Q: `Cc1ccc2oc(-c3cc(NC(=O)Cc4ccccc4)ccc3Cl)nc2c1` was tested. Which IC90 did it give?
A: < 0.1 µg/mL

Q: `C[C@@H]1COC2(CCN(c3nc(=O)c4cc(C(F)(F)F)cc([N+](=O)[O-])c4s3)CC2)O1` was tested. Which MIC did it give?
A: 0.001 µg/mL (≈ 0.00232 µM)

Q: With `Cc1sc(N)nc1C(=O)O` as the molecule, how does the MIC read?
A: 0.06 µg/mL (≈ 0.379 µM)

Q: Which MIC does the source give for `COC(=O)c1nc(N)sc1Cc1ccccc1` here?
A: 0.06 µg/mL (≈ 0.242 µM)

Q: With `FC(F)(F)c1ccccc1Nc1nc(-c2ccccn2)cs1` as the molecule, how does the IC90 read?
A: < 0.1 µg/mL

Q: For `CC1(CNC(=O)Nc2ccc(C(F)(F)F)cc2)CC2CCC1C2` (stereo not given), which IC90 is on record?
A: < 0.1 µg/mL

Q: With `CC(C)(C)c1cc(Cl)c(O)c(NC(=S)NC(=O)c2ccc3ccccc3c2)c1` as the molecule, how does the IC90 read?
A: < 0.1 µg/mL

Q: With `CSc1ncnc2c1ncn2CC(=O)Nc1ccc(C)c(C)c1` as the molecule, how does the IC90 read?
A: < 0.1 µg/mL

Q: With `O=C(Nc1ccc(F)c(Cl)c1)c1ccc([N+](=O)[O-])o1` as the molecule, how does the IC90 read?
A: < 0.1 µg/mL

Q: How did the IC90 turn out when `O=C(Nc1ccc(F)c(Cl)c1)C12CC3CC(CC(C3)C1)C2` was run?
A: < 0.1 µg/mL

Q: For `O=C(CC12CC3CC(CC(C3)C1)C2)Nc1ccc2ccccc2c1`, which IC90 is on record?
A: < 0.1 µg/mL

Q: Which IC90 does the source give for `CC(C)(C)c1ccc(C(=O)Nc2nc3ccccc3[nH]2)cc1` here?
A: < 0.1 µg/mL

Q: With `Cc1ccc(C(=O)Nc2ccc([N+](=O)[O-])cc2C)cc1I` as the molecule, how does the IC90 read?
A: < 0.1 µg/mL

Q: How did the IC90 turn out when `COC(=O)COc1ccc(NC(=O)COc2ccc(C)cc2C)cc1` was run?
A: < 0.1 µg/mL

Q: `Cc1cc([N+](=O)[O-])ccc1NC(=O)c1ccc(-c2ccccc2)cc1` was tested. Which IC90 did it give?
A: < 0.1 µg/mL

Q: For `COc1ccc(CCNC(=O)CCc2ncc(C(C)(C)C)s2)cc1`, which IC90 is on record?
A: < 0.1 µg/mL

Q: For `Cc1c(Cl)cccc1NC(=O)OC(C)(OC1CCCCC1)C(=O)O` (stereo not given), which IC90 is on record?
A: < 0.1 µg/mL

Q: For `CSc1ncc(C(=O)Nc2cccc(C(F)(F)F)c2)cn1`, which IC90 is on record?
A: < 0.1 µg/mL

Q: `Cc1cccnc1Nc1nc(-c2ccccn2)cs1` was tested. Which IC90 did it give?
A: < 0.1 µg/mL

Q: How did the IC90 turn out when `Clc1ccc(Nc2nc(-c3ccccn3)cs2)nc1` was run?
A: < 0.1 µg/mL

Q: How did the MIC turn out when `C[C@H]1COC2(CCN(c3nc(=O)c4cc(C(F)(F)F)cc([N+](=O)[O-])c4s3)CC2)O1` [BTZ-043] was run?
A: 0.001 µg/mL (≈ 0.00232 µM)
